Test system: human myeloma cell line MM.1S
Test: SILAC acetylated-lysine peptide profiling, HDAC inhibitor vs DMSO (light/heavy ratio)
Type: cell-based
From the text: An embodiment of the invention comprises utilizing the SILAC method in order to quantitate changes in protein expression between two or more populations of cells. The SILAC method is a technique based on mass spectrometry that detects differences in protein abundance among samples using non-radioactive isotopic labeling. The SILAC method is known in the art, and described in detail in Ong et al., “Stable Isotope Labeling by Amino Acids in Cell Culture, SILAC, as a Simple and Accurate Approach to Expression Proteomics”, Molecular & Cellular Proteomics, vol. 1, pp. 376-386 (2002), which is incorporated herein by reference in its entirety.
Briefly, the SILAC method involves growing two populations of cells in cell culture. The first population of cells is grown in growth media containing normal amino acids (“normal media”). The second population of cells is grown in media lacking a standard essential amino acid (such as lysine), but is then supplemented with a non-radioactive, isotopically labeled form of that essential amino acid (such as lysine labeled with ^13C atoms, rather than normal ^12C atoms), which is called “heavy media”. When the two populations of cells are each growing in the medium, they incorporate the amino acids into all of their proteins. The growth of cells maintained in the heavy media is no different from that in normal media. All peptides containing the heavy amino acids are heavier than their normal counterparts. The cells from each of the two populations of cells are lysed. The lysates from each of the two cell populations are then combined. The combined cell lysates are then analyzed by mass spectrometry. Pairs of chemically identical peptides of different stable isotope composition can be differentiated in a mass spectrometer due to their difference in mass. The ratio of peak intensities in the mass spectrum for such peptide pairs reflects the abundance ratio for the two proteins.
This example describes SILAC studies that were performed to compare the effects of three different HDAC inhibitors (Compound A, Compound B, and tubastatin A) to a control on a human multiple myeloma cell line. The HDAC inhibitors were also compared amongst themselves to determine differences in their effects.
A human myeloma cell line MM.1S was grown using either ^12C (light) or ^13C (heavy) lysine containing culture medium. The “heavy” cells were treated with DMSO as the control, and the “light” cells were treated with a single HDAC inhibitor at 37° C. for 6 hours. The heavy and light cells were lysed, and the lysates were mixed in 1:1 ratio and digested with the protease trypsin. The acetylated lysine containing peptides (due to the action of the HDAC inhibitor) in the digested peptide pool were captured by a non-specific anti-acetylated lysine antibody cocktail (the antibodies identify both light and heavy acetylated peptides), and subjected to mass spectrometry analysis in order to identify thousands of individual peptides.
Thousands of peptides were identified in pairs (^12C and ^13C) due to their known mass differences. The amino acid sequence and quantitative ratio (Light/Heavy) of a given peptide in two differentially treated cell lysates were then determined and annotated with their possible protein (gene) sources.
As stated above, three HDAC inhibitors (Compound A, Compound B, and Tubastatin A) were used. Thus, the SILAC method was performed three times, with a different HDAC inhibitor compared to a control each time. Accordingly, there are three pairs of quantitative data in the table below, i.e., Compound A:DMSO, Compound B:DMSO, and Tubastatin A:DMSO. A cut-off of 1.30 fold of change (increase or decrease) was then used to determine “changed” or “+” in the table, and any peptides with a fold of change less than 1.3 fold were determined to be “unchanged” or “0” in the table. Those peptides that were not identified were marked as “NA” in the table. […]

Q: How did the “L/H ratio of acetylated peptide FIK(ac)IDGK” value (SEQ ID NO: 660, 40S ribosomal protein S4 X isoform [71], RPS4X) turn out when `O=C(CCCCCCNC(=O)c1cnc(N(c2ccccc2)c2ccccc2)nc1)NO` [Compound A, 2-(diphenylamino)-N-(7-(hydroxyamino)-7-oxoheptyl)pyrimidine-5-carboxamide] was run?
A: The value was 0.57 log 2.

Q: And the “L/H ratio of acetylated peptide LAMVK(ac)AEPDVK” value (SEQ ID NO: 661, NADH dehydrogenase [ubiquinone] 1 alpha subcomplex subunit 5 [60], NDUFA5)?
A: Its value is 0.58 log 2.

Q: And the “L/H ratio of acetylated peptide NEK(ac)LFYR” value (SEQ ID NO: 662, NADP-dependent malic enzyme mitochondrial [119], ME3)?
A: The value was 0.58 log 2.

Q: And the “L/H ratio of acetylated peptide K(ac)FVCPECSK” value (SEQ ID NO: 663, Isoform 1 of Transcription factor Sp3 [680], SP3)?
A: Its value is 0.58 log 2.

Q: What about the “L/H ratio of acetylated peptide DLSLDDFK(ac)GK” value (SEQ ID NO: 664, Thioredoxin-dependent peroxide reductase mitochondrial [91], PRDX3) of the same molecule?
A: The value was 0.58 log 2.

Q: And the “L/H ratio of acetylated peptide DLTDYLMK(ac)ILTER” value (SEQ ID NO: 665, Beta-actin-like protein 2 [192], ACTBL2)?
A: The value was 0.58 log 2.

Q: What about the “L/H ratio of acetylated peptide HGASPELQK(ac)QIR” value (SEQ ID NO: 666, Peroxisomal membrane protein 11B [43], PEX11B) of the same molecule?
A: Its value is 0.58 log 2.

Q: What about the “L/H ratio of acetylated peptide LNQLK(ac)PGLQYK” value (SEQ ID NO: 667, Isoform 5 of Interleukin enhancer-binding factor 3 [413], ILF3) of the same molecule?
A: The value was 0.59 log 2.

Q: And the “L/H ratio of acetylated peptide ISK(ac)LYGDLK” value (SEQ ID NO: 668, cDNA FLJ61478 highly similar to Succinate dehydrogenase (ubiquinone) flavoprotein subunit mitochondrial [541], SDHA)?
A: The value was 0.59 log 2.

Q: What about the “L/H ratio of acetylated peptide LTSDDVK(ac)EQIYK” value (SEQ ID NO: 669, 40S ribosomal protein S13 [34], RPS13) of the same molecule?
A: The value was 0.60 log 2.

Q: And the “L/H ratio of acetylated peptide SCNCLLLK(ac)[…]” value (SEQ ID NO: 670, Isoform alpha-enolase of Alpha-enolase [343], ENO1)?
A: Its value is 0.60 log 2.

Q: What about the “L/H ratio of acetylated peptide […](ac)FLIK” value (SEQ ID NO: 671, Methyltransferase-like protein 7A [105], METTL7A) of the same molecule?
A: Its value is 0.60 log 2.

Q: And the “L/H ratio of acetylated peptide […](ac)QLK” value (SEQ ID NO: 672, Annexin A6 [442], ANXA6)?
A: The value was 0.60 log 2.

Q: And the “L/H ratio of acetylated peptide EVK(ac)LLLLGAGESGK” value (SEQ ID NO: 673, Guanine nucleotide-binding protein G(k) subunit alpha [35], GNAI3)?
A: The value was 0.60 log 2.

Q: What about the “L/H ratio of acetylated peptide […](ac)LR” value (SEQ ID NO: 674, Isoform 1 of Vesicle-associated membrane protein-associated protein A [125], VAPA) of the same molecule?
A: Its value is 0.60 log 2.

Q: What about the “L/H ratio of acetylated peptide YNWSAK(ac)AK” value (SEQ ID NO: 675, 60S ribosomal protein L37 [52], RPL37) of the same molecule?
A: Its value is 0.60 log 2.

Q: What about the “L/H ratio of acetylated peptide GNK(ac)PWISLPR” value (SEQ ID NO: 676, 40S ribosomal protein S4 X isoform [233], RPS4X) of the same molecule?
A: The value was 0.60 log 2.

Q: What about the “L/H ratio of acetylated peptide […](ac)NK” value (SEQ ID NO: 677, Isoform Long of ES1 protein homolog mitochondrial [233], C21orf33) of the same molecule?
A: Its value is 0.61 log 2.

Q: And the “L/H ratio of acetylated peptide LENDK(ac)SFR” value (SEQ ID NO: 678, Isoform 1 of Enoyl-CoA delta isomerase 1 mitochondrial [89], ECI1)?
A: The value was 0.61 log 2.

Q: And the “L/H ratio of acetylated peptide LVAMK(ac)FLR” value (SEQ ID NO: 679, Isoform 1 of Nucleoside diphosphate kinase B [39], NME1, NME2, NME1-NME2)?
A: The value was 0.61 log 2.

Q: What about the “L/H ratio of acetylated peptide KVPFGK(ac)TYCCDLK” value (SEQ ID NO: 680, Mitochondrial carrier homolog 2 [293], MTCH2) of the same molecule?
A: Its value is 0.62 log 2.

Q: What about the “L/H ratio of acetylated peptide TK(ac)[…]” value (SEQ ID NO: 681, Isoform 1 of Structural maintenance of chromosomes protein 2 [1160], SMC2) of the same molecule?
A: The value was 0.62 log 2.

Q: And the “L/H ratio of acetylated peptide LAQLEEAK(ac)[…]” value (SEQ ID NO: 682, ATP synthase subunit b mitochondrial [139], ATP5F1)?
A: Its value is 0.63 log 2.

Q: And the “L/H ratio of acetylated peptide IPVPVQK(ac)NIDQQIK” value (SEQ ID NO: 683, Isoform 1 of Pre-mRNA-splicing factor 38B [227], PRPF38B)?
A: Its value is 0.64 log 2.

Q: And the “L/H ratio of acetylated peptide […](ac)K” value (SEQ ID NO: 684, Protein disulfide-isomerase [207], P4HB)?
A: The value was 0.64 log 2.

Q: And the “L/H ratio of acetylated peptide VDIRPQLLK(ac)NALQR” value (SEQ ID NO: 685, Isoform 1 of Heterochromatin protein 1-binding protein 3 [302], HP1BP3)?
A: Its value is 0.64 log 2.

Q: What about the “L/H ratio of acetylated peptide NQK(ac)LTATTQK” value (SEQ ID NO: 686, Nucleoprotein TPR [748], TPR) of the same molecule?
A: Its value is 0.64 log 2.

Q: What about the “L/H ratio of acetylated peptide YYK(ac)NIGLGFK” value (SEQ ID NO: 687, 40S ribosomal protein S11 [38], RPS11) of the same molecule?
A: Its value is 0.65 log 2.

Q: What about the “L/H ratio of acetylated peptide SGK(ac)YDLDFK” value (SEQ ID NO: 688, Isoform alpha-enolase of Alpha-enolase [256], ENO1) of the same molecule?
A: Its value is 0.65 log 2.

Q: And the “L/H ratio of acetylated peptide LYGDLK(ac)HLK” value (SEQ ID NO: 689, cDNA FLJ61478 highly similar to Succinate dehydrogenase (ubiquinone) flavoprotein subunit mitochondrial [547], SDHA)?
A: Its value is 0.65 log 2.

Q: What about the “L/H ratio of acetylated peptide VENEAEK(ac)DLQCHAPVR” value (SEQ ID NO: 690, Isoform 1 of Bromodomain-containing protein 7 [103], BRD7) of the same molecule?
A: Its value is 0.65 log 2.

Q: What about the “L/H ratio of acetylated peptide DSLYK(ac)[…]” value (SEQ ID NO: 691, Isoform 1 of Clathrin heavy chain 1 [1535], CLTC) of the same molecule?
A: Its value is 0.65 log 2.

Q: And the “L/H ratio of acetylated peptide TISAK(ac)YAEER” value (SEQ ID NO: 692, Isoform 1 of Myosin-9 [1459], MYH9)?
A: The value was 0.65 log 2.

Q: And the “L/H ratio of acetylated peptide (ac)ASNK(ac)TTLQK” value (SEQ ID NO: 693, Chromobox protein homolog 3 [5], CBX3)?
A: The value was 0.66 log 2.

Q: What about the “L/H ratio of acetylated peptide GYLADPAK(ac)FPEAR” value (SEQ ID NO: 694, 39S ribosomal protein L15 mitochondrial [228], MRPL15) of the same molecule?
A: Its value is 0.66 log 2.

Q: What about the “L/H ratio of acetylated peptide SCEIK(ac)FLTFK” value (SEQ ID NO: 695, Isoform 2 of 39S ribosomal protein L39 mitochondrial [126], MRPL39) of the same molecule?
A: The value was 0.66 log 2.
